Laboratory results from patent US9624278B2, “Protein complex comprising MCM8 and MCM9 proteins and their use” (CENTRE NATIONAL DE LA RECHERCHE SCIENTIFIQUE, priority 2011, dated 2017).

Assays:
Type in all cases: cell-based, mouse
MCM9-deficient MEF cells = assay: BrdU incorporation and growth of MCM9-deficient MEF cells treated 24 h with aphidicolin and released
Procedure: (§1) In Xenopus egg extracts, MCM8 and 9 were found essential for efficient DNA replication^4 5. However, in in-vitro systems derived from Xenopus eggs, DNA replication efficiency is at its maximum, as all potential DNA replication origins are activated, leading to an unusual short inter-origin space and an accelerated S phase (less than 20 min). A deficiency in DNA replication could be therefore rapidly detected. In somatic cells, S phase stands for 6-10 hrs, including during mouse early development (Wowlett and Bolton, 1985), J. Embryol. Exp. Morph, 87, 175; Ferreira and Carmon Forseca, 1997, J. Cell Sci, 11, 889). Therefore, defects in DNA replication can be compensated by induction of the store of dormant origins and/or a higher rate of replication. To investigate this possibility, and reveal possible DNA replication weaknesses in KO MEFs the Inventors first performed DNA fiber stretching^24, using a double pulse-labeling method, applying first a CldU pulse (“red” pulse), followed a second IdU pulse (“green” pulse), as in FIG. 29. Replication fork arrests can be detected by measuring the length of the second pulse, which becomes shorter if the fork is blocked or slowing down. […] To reveal whether MCM9 KO cells were more sensitive to replication stress, the Inventors treated MEF cells for 24 hrs with low concentration (1 μM) of aphidicolin (APH), an inhibitor of DNA polymerases that slows down or blocks replication forks. First, the Inventors quantified the global efficiency of DNA replication by measuring the proportion of cells incorporating BrdU. […] The Inventors concluded that KO cells were highly sensitive to replication fork inhibition. When cells were further released from APH treatment, control cells re-establish the original BrdU-intensity within the first 3 hours (FIG. 30, FIGS. 31A-T). […] The Inventors conclude that MCM9 KO cells are highly sensitive to replication stress, and unable to rescue arrested forks, resulting in growth arrest. […]

MCM9 and MCM8 = assay: Western blot of WT MEF cells exposed for 24 h to APH; conditions: WT MEFs treated by APH
Procedure: FIG. 34B represents a western blot analysis of WT-(lanes A and C) and MCM9-deficient-(lanes B and D) MEF cells exposed (lanes C and D) or not (lanes A and B) for 24 h to APH for MCM9 (panel 1), MCM8 (panel 2), Chk1-P (panel 3), Chk2 (panel 4) and GAPDH (panel 5) as loading control. […] Rad51 is an essential protein of the homologous recombination pathway that is the main repair mechanisms of DSBs caused by replication fork arrest^25,12. […] For chromatin isolation, MEF cells were harvested, washed with PBS, frozen at −80° C. or directly lysed in CSK buffer (150 mM NaCl, 10 mM HEPES pH 7.5, 300 mM Sucrose, 1 mM MgCl2, 1 mM EDTA, 1 mM ATP.MgCl2, 1 mM DTT, 0.2% Triton X-100, Phosphatase-inhibitors (Calbiochem), protease-inhibitors Leupeptin, Aprotinin and Pepstatin at a concentration of 10 μg/ml) for 10 min on ice in a volume of 1 μl buffer for 2000 cells. For whole cell extract (“WCE”), a sample of the lysate was mixed with two times Laemli SDS buffer and boiled. The lysate was centrifuged at 3′800 g for 5 min at 4° C., the pellet homogenized again in CSK buffer, extracted again for 5 min on ice and centrifuged again and finally solubilized in two times Laemli SDS buffer (1 μl buffer for 5000 cells).

WT MEF cells = assay: BrdU incorporation and growth of WT MEF cells treated 24 h with aphidicolin and released
Procedure: as §1

C[C@@]1(CO)[C@H](O)CC[C@@]2(C)[C@H]1CC[C@H]1C[C@@H]3C[C@@]12CC[C@]3(O)CO [APH, aphidicolin]
cell growth after the release from APH (MCM9-deficient MEF cells; MCM9- (as well as MCM8-) KO MEF cells, 24 h APH then released without drug): died or stopped dividing | BrdU-labeled nuclei after the APH treatment (MCM9-deficient MEF cells; MCM9-deficient MEF cells, 1 μM aphidicolin, 24 hrs): nearly no BrdU-labeled nuclei | time until percentage of BrdU-positive cells comparable to before the APH treatment (MCM9-deficient MEF cells; surviving MCM9-deficient KO MEF cells, released from 24 h APH treatment): 48 h | expression of MCM9 and MCM8 at the protein level (MCM9 and MCM8): stronger expression | BrdU signal in nuclei after the APH treatment (WT MEF cells; WT MEF cells, 1 μM aphidicolin, 24 hrs): strongly reduced | cell growth after the release from APH (WT MEF cells; WT MEF cells, 24 h APH then released without drug): resumed growth soon | time to re-establish the original BrdU-intensity after release from APH (WT MEF cells; control (WT) MEF cells, released from 24 h APH treatment): ≤ 3 h
